Article PMC10764862, “Structural basis and selectivity of sulfatinib binding to FGFR and CSF-1R” (Communications Chemistry, 2024)
Where a chain is given by its changes, count along the chain named. Read-outs that look alike come from different tables or passages of the source.

Columns and labels:
CSF-1R [1] = test system: CSF-1R; design: method as in PMID 28665128; conditions: cited from earlier work
FGFR4 [2] = test system: FGFR4; design: method as in PMID 28665128; conditions: cited from earlier work
FGFR3 [3] = test system: FGFR3; design: method as in PMID 28665128; conditions: cited from earlier work
FGFR2^V564F = biological target: T1, FGFR2^V564F (Homo sapiens, UniProt P21802, V564F); experiment: Kinase inhibition assay (ADP-Glo), FGFR2 V564F gatekeeper mutant; format: biochemical
T1 construct: FGFR2 (residues 458–768); 6×His (PreScission-cleavable) (N, cleaved yes); made in house; host or cells: E. coli BL21 Rosetta
Protocol: (§1) FGFRs were prepared as previously described[6],[34],[44],[45]. Briefly, FGFR1 (residues 458–765), FGFR2 (residues 458–768), FGFR3 (residues 450–758) as well as FGFR4 (residues 445–753), and their mutants, FGFR1^C584S, FGFR1^V561M, FGFR2^V564I, FGFR2^V564F and FGFR3^V555M, were cloned into a modified pET28a vector in frame with an N-terminal PreScission-cleavable 6×His tag and expressed in E. coli BL21 Rosetta cells. For crystallization, FGFR1^C584S was co-expressed with untagged YOPH to induce non-phosphorylated proteins. The harvested cell pellets were lysed in a buffer containing 20 mM Tris-HCl, pH 8.0, 500 mM NaCl, 20 mM imidazole and 0.5 mM TCEP, and FGFRs were purified over Ni-NTA resin followed by enzymatic digestion with PreScission for 6×His-tag cleavage and further purified by anion exchange chromatography (GE Healthcare). For crystallization, FGFR1^C584S was further purified by gel filtration chromatography (GE Healthcare). […]
(§2) The inhibition by sulfatinib was determined by the measurement of kinase activities following the ADP-Glo assay kit (Promega)[6],[44],[45]. […] Following the addition of detection reagent to convert the generated ADP to ATP, the luminescence was detected by a plate reader (Perkin Elmer). Samples were run in triplicate and the IC50 values were calculated by log[Inhibitor] versus kinase activity ratio in GraphPad Prism 8.0.

FGFR1 = biological target: T2, FGFR1 (Homo sapiens, UniProt P11362); experiment: Kinase inhibition assay (ADP-Glo), FGFR1; format: biochemical; conditions: wild-type kinase domain
T2 construct: FGFR1 (residues 458–765); 6×His (PreScission-cleavable) (N, cleaved yes); made in house; host or cells: E. coli BL21 Rosetta
Protocol: as §1, §2

FGFR2 = biological target: T3, FGFR2 (Homo sapiens, UniProt P21802); experiment: Kinase inhibition assay (ADP-Glo), FGFR2; format: biochemical; conditions: wild-type kinase domain
T3 construct: FGFR2 (residues 458–768); 6×His (PreScission-cleavable) (N, cleaved yes); made in house; host or cells: E. coli BL21 Rosetta
Protocol: as §1, §2

CSF-1R^T663I = biological target: T4, CSF-1R^T663I (Homo sapiens, UniProt P07333, C667T/C830S/C907T/DEL696-741/T663I); experiment: Kinase inhibition assay (ADP-Glo), CSF-1R T663I gatekeeper mutant; format: biochemical; conditions: read-out: Kinase inhibitory activity CSF-1R^T663I IC50
T4 sequence (P07333 with tags, fused parts or gaps T663I/C667T/DEL696-741/C830S/C907T): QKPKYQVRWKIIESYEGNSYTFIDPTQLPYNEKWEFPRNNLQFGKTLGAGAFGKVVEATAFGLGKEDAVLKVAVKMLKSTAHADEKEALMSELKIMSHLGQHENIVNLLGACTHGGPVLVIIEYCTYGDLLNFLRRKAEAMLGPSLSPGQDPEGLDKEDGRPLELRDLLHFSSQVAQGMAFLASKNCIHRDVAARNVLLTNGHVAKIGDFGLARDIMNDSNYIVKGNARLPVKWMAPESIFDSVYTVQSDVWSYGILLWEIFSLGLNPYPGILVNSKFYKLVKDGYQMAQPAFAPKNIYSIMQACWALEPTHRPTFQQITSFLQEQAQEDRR
Protocol: (§3) Wild-type CSF-1R (residues 542–919, △696–741, C677T, C830S, C907T) and CSF-1R^T663I carrying an N-terminal 6×His tag was cloned into a pFastBac expression vector, and was expressed in SF9 cells using the Invitrogen Bac-to-Bac Baculovirus Expression System[41]. For crystallization, CSF-1R was co-expressed with N-terminal GST-tagged YOPH to induce non-phosphorylated proteins. The harvested cell pellets were lysed by sonication in lysis buffer consisting of 40 mM K-phosphate, pH 8.0, 200 mM NaCl, 0.5 mM PMSF, and protease inhibitor mixture (EDTA-free, Roche). After centrifugation, the clarified cell lysate was supplemented with 20 mM imidazole, and incubated with Ni-NTA beads (GE Healthcare). The Ni-NTA bead-bound CSF-1R protein was eluted using 25 mM HEPES, pH 7.0, 150 mM NaCl and 200 mM imidazole, and was subsequently supplemented with 10 mM DTT after elution. […]
as §2

FGFR3^V555M = biological target: T5, FGFR3^V555M (Homo sapiens, UniProt P22607, V555M); experiment: Kinase inhibition assay (ADP-Glo), FGFR3 V555M gatekeeper mutant; format: biochemical
T5 construct: FGFR3 (residues 450–758); 6×His (PreScission-cleavable) (N, cleaved yes); made in house; host or cells: E. coli BL21 Rosetta
Protocol: as §1, §2

FGFR3 [4] = biological target: T6, FGFR3 (Homo sapiens, UniProt P22607); experiment: Kinase inhibition assay (ADP-Glo), FGFR3; format: biochemical; conditions: wild-type kinase domain
T6 construct: FGFR3 (residues 450–758); 6×His (PreScission-cleavable) (N, cleaved yes); made in house; host or cells: E. coli BL21 Rosetta
Protocol: as §1, §2

FGFR4 [5] = biological target: T7, FGFR4 (Homo sapiens, UniProt P22455); experiment: Kinase inhibition assay (ADP-Glo), FGFR4; format: biochemical
T7 construct: FGFR4 (residues 445–753); 6×His (PreScission-cleavable) (N, cleaved yes); made in house; host or cells: E. coli BL21 Rosetta
Protocol: as §1, §2

CSF-1R [6] = biological target: T8, CSF-1R (Homo sapiens, UniProt P07333, C667T/C830S/C907T/DEL696-741); experiment: Kinase inhibition assay (ADP-Glo), CSF-1R; format: biochemical; conditions: wild-type kinase domain
T8 construct: Wild-type CSF-1R (residues 542–919, △696–741, C677T, C830S, C907T); 6×His (N); made in house; host or cells: SF9 insect cells (baculovirus)
T8 sequence (P07333 with tags, fused parts or gaps C667T/DEL696-741/C830S/C907T): T4 sequence (P07333 with tags, fused parts or gaps T663I/C667T/DEL696-741/C830S/C907T) with I122T
Protocol: as §3, §2

FGFR1^V561M = biological target: T9, FGFR1^V561M (Homo sapiens, UniProt P11362, V561M); experiment: Kinase inhibition assay (ADP-Glo), FGFR1 V561M gatekeeper mutant; format: biochemical
T9 construct: FGFR1 (residues 458–765); 6×His (PreScission-cleavable) (N, cleaved yes); made in house; host or cells: E. coli BL21 Rosetta
Protocol: as §1, §2

FGFR2^V564I = biological target: T10, FGFR2^V564I (Homo sapiens, UniProt P21802, V564I); experiment: Kinase inhibition assay (ADP-Glo), FGFR2 V564I gatekeeper mutant; format: biochemical
T10 construct: FGFR2 (residues 458–768); 6×His (PreScission-cleavable) (N, cleaved yes); made in house; host or cells: E. coli BL21 Rosetta
Protocol: as §1, §2

T10 sequence (P21802 458-768 V564I): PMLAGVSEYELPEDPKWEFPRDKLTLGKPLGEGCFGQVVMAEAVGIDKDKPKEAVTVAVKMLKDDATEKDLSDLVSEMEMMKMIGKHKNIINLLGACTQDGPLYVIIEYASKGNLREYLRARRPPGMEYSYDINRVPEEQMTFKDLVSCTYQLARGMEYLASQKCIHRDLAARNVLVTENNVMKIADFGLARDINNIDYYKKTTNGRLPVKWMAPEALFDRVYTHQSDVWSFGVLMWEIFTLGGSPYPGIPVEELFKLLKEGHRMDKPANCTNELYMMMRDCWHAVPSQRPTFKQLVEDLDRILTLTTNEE
T5 sequence (P22607 450-758 V555M): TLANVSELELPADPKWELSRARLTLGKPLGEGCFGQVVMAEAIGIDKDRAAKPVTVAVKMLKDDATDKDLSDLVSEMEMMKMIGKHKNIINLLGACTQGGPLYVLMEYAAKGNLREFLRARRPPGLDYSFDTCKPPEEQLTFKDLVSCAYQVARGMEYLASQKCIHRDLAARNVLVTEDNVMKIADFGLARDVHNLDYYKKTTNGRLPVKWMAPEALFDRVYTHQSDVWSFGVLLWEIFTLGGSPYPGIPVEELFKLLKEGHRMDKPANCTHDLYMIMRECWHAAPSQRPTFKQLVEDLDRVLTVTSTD
T9 sequence (P11362 458-765 V561M): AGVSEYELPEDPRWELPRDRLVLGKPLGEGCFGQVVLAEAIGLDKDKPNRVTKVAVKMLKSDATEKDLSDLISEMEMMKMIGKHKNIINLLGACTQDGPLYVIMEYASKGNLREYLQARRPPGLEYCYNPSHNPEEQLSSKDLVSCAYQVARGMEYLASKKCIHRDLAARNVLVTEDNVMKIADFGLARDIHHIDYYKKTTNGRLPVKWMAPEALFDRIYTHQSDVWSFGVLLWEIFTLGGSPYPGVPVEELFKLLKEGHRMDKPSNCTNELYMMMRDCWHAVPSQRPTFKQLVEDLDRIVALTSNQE
T1 sequence (P21802 458-768 V564F): as the sequence (P21802 458-768 V564I) above, with I107F counted along it
T7 sequence (P22455 445-753): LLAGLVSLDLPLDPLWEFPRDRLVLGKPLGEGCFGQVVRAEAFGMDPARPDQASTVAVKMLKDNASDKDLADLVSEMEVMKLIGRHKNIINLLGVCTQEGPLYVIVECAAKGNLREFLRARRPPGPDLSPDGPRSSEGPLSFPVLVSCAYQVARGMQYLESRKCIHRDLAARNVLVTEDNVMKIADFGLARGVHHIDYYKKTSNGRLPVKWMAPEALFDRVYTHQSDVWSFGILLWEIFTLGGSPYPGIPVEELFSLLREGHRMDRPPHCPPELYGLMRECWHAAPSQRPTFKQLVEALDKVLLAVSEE
T6 sequence (P22607 450-758): as the sequence (P22607 450-758 V555M) above, with M106V counted along it
T2 sequence (P11362 458-765): as the sequence (P11362 458-765 V561M) above, with M104V counted along it
T3 sequence (P21802 458-768): as the sequence (P21802 458-768 V564I) above, with I107V counted along it

Row | IC50 (FGFR2^V564F; ADP-Glo, read-out: Kinase inhibitory activity FGFR2^V564F IC50) [µM] | IC50 (FGFR2^V564F; bound stated, read-out: IC50 for FGFR2^V564F) [µM] | IC50 (FGFR1) [µM] | IC50 (FGFR2) [µM] | IC50 (CSF-1R^T663I) [µM] | IC50 (FGFR3^V555M; ADP-Glo, read-out: Kinase inhibitory activity FGFR3^V555M IC50) [µM] | IC50 (FGFR3^V555M; bound stated, read-out: IC50 for FGFR3^V555M) [µM] | IC50 (FGFR3 [4]) [µM] | reduction in efficacy for FGFR4 (FGFR4 [5]; FGFR4 IC50 compared with FGFR1) | IC50 (FGFR4 [5]; wild-type kinase domain, ADP-Glo) [µM] | IC50 (CSF-1R [6]) [µM] | IC50 (FGFR1^V561M; ADP-Glo, read-out: Kinase inhibitory activity FGFR1^V561M IC50) [µM] | IC50 (FGFR1^V561M; bound stated, read-out: IC50 for FGFR1^V561M) [µM] | IC50 (FGFR2^V564I; ADP-Glo, read-out: Kinase inhibitory activity FGFR2^V564I IC50) [µM] | IC50 (FGFR2^V564I; bound stated, read-out: IC50 for FGFR2^V564I) [µM] | SMILES | IC50 (CSF-1R [1]) [µM] | IC50 (FGFR4 [2]) [µM] | IC50 (FGFR3 [3]) [µM]
1 | – | – | – | – | – | – | – | – | – | – | – | – | – | – | – | C=CC(=O)N1CCN(CCCn2c(=O)c(-c3c(Cl)c(OC)cc(OC)c3Cl)cc3cnc(NC)nc32)CC1 [PRN1371, 8-(3-(4-Acryloylpiperazin-1-yl)propyl)-6-(2,6-dichloro-3,5-dimethoxyphenyl)-2-(methylamino)pyrido[2,3-d]pyrimidin-7(8H)-one] | 0.0081 | 0.0193 | […]
2 | 2.97 | > 2 | 0.034 | 0.021 | 0.004 | > 5 | > 2 | 0.028 | approximately 26 fold | 0.889 | 0.005 | > 5 | > 2 | 3.49 | > 2 | Cc1cc2cc(Oc3ccnc(Nc4cccc(CS(=O)(=O)NCCN(C)C)c4)n3)ccc2[nH]1 [sulfatinib] | – | – | –
